Data on 5 compounds can be found in patent US20190119729A1, “METHOD OF DETECTING AND TREATING P. ACNES AND KIT THEREOF” (priority 2016, published 2019).

≈ marks a conversion by molar mass, not a printed value. A value given as a limit tells only on which side of the number the result lay.

The test system of assay [1] is P. acnes clinical isolates (clindamycin resistant). In words: Antimicrobial susceptibility of clindamycin resistant P. acnes clinical isolates against various antibiotics (Table 2). To be noted: for MIC: Cutibacterium acnes; for susceptibility of the strains as indicated by MIC values: all the clindamycin, erythromycin resistant strains of Table 2. Format: cell-based. An excerpt:
Various clinical isolates are obtained from patients carrying Clindamycin Resistant P. acnes and their antimicrobial susceptibility to fluoroquinolone antibiotics is studied vis-à-vis susceptibility to Clindamycin and Erythromycin.

A further assay deals with P. acnes isolates. Description: Antimicrobial susceptibility patterns of P. acnes isolates against different antibiotics (Table 1). To be noted: Cutibacterium acnes. The assay is classed as cell-based. From the text:
Table 1 below depicts the antimicrobial susceptibility patterns of P. acnes isolates against different antibiotics: […]

Another assay concerns P. acnes. To be noted: in those receiving prolonged antibiotic therapy with the drug (Leyden et al 1983); cited from earlier work.
[2] abbreviates: isolate V21A1, phylotype IA1, type IV, 23S rRNA A2059G.
Setting [3] is: isolate V21A2, phylotype IB, type I, 23S rRNA A2058G.
The mark [4] stands for this setting: isolate V21A3, phylotype IB, type I, 23S rRNA A2058G.
Setting [5] is: isolate V21A4, phylotype IB, type I, 23S rRNA A2058G.
[6] abbreviates: isolate V21A5, phylotype IA1, type IV, 23S rRNA A2059G.
[7] abbreviates: isolate V21A6, phylotype IA1, type IV, 23S rRNA A2059G.
[8] abbreviates: isolate V21A7, phylotype IA1, type IV, 23S rRNA A2059G.
Where [9] appears, read: isolate V21A8, phylotype IA1, type IV, 23S rRNA A2059G.
The mark [10] stands for this setting: isolate V21A9, phylotype IB, type I, 23S rRNA A2058G.
The mark [11] stands for this setting: isolate V21A10, phylotype IB, type I, 23S rRNA A2058G.
Where [12] appears, read: isolate V21B2, phylotype IB, type I, 23S rRNA A2058G.
Setting [13] is: isolate V21B4, phylotype IB, type I, 23S rRNA A2058G.
The mark [14] stands for this setting: isolate V21B6, phylotype IB, type I, 23S rRNA A2058G.
[15] abbreviates: isolate V21B7, phylotype IB, type I, 23S rRNA A2058G.
Setting [16] is: isolate V21B8, phylotype IB, type I, 23S rRNA A2058G.

As for `N[C@@H]1CCCCN(c2c(F)cc3c(=O)c(C(=O)O)cn(C4CC4)c3c2Cl)C1` [Besifloxacin, besifloxacin], the MIC in assay [1] (P. acnes strain V21A-7) was 0.13 µg/mL (≈ 0.33 µM); in assay [1] (P. acnes strain V21B-1), 0.5 µg/mL (≈ 1.27 µM); in assay [1] (P. acnes strain V21B-2), 0.25 µg/mL (≈ 0.635 µM); in assay [1] (P. acnes strain V21B-3) it was 0.25 µg/mL (≈ 0.635 µM); in assay [1] (P. acnes strain V21B-4), 0.25 µg/mL (≈ 0.635 µM); in assay [1] (P. acnes strain V21B-5) it was 0.5 µg/mL (≈ 1.27 µM). Besides, the MIC in assay [1] (P. acnes strain V21B-6), in assay [1] (P. acnes strain V21B-7) and in assay [1] (P. acnes strain V21B-8) was 0.25 µg/mL (≈ 0.635 µM) in each case. Moreover, the “susceptibility of the strains as indicated by MIC values” in assay [1] is given as “susceptible”.

Consider `CCC[C@@H]1C[C@@H](C(=O)N[C@@H]([C@H]2O[C@H](SC)[C@H](O)[C@@H](O)[C@H]2O)[C@H](C)Cl)N(C)C1` [Clindamycin, clindamycin], for which the MIC in the assay with P. acnes isolates (setting [2]) was 1 to 8 µg/mL (≈ 2.35 to 18.8 µM); with P. acnes isolates (setting [3]), 8 to 64 µg/mL (≈ 18.8 to 151 µM); against P. acnes isolates (setting [4]) it was 8 to 32 µg/mL (≈ 18.8 to 75.3 µM); against P. acnes isolates (setting [5]), 16 to 64 µg/mL (≈ 37.6 to 151 µM); against P. acnes isolates (setting [6]) it was 1 µg/mL (≈ 2.35 µM); in the assay with P. acnes isolates (setting [7]), 1 to 2 µg/mL (≈ 2.35 to 4.71 µM). Further, the MIC lay in the range of 0.5 to 2 µg/mL (≈ 1.18 to 4.71 µM) in the assay with P. acnes isolates (setting [8]); 1 to 2 µg/mL (≈ 2.35 to 4.71 µM) in the assay with P. acnes isolates (setting [9]); 16 to 32 µg/mL (≈ 37.6 to 75.3 µM) against P. acnes isolates (setting [10]); 16 to 64 µg/mL (≈ 37.6 to 151 µM) against P. acnes isolates (setting [11]); 16 to 64 µg/mL (≈ 37.6 to 151 µM) in the assay with P. acnes isolates (setting [12]); 32 to 64 µg/mL (≈ 75.3 to 151 µM) against P. acnes isolates (setting [13]). Also, the MIC was in the range of 16 to 64 µg/mL (≈ 37.6 to 151 µM) with P. acnes isolates (setting [14]); 16 to 64 µg/mL (≈ 37.6 to 151 µM) against P. acnes isolates (setting [15]); 16 to 64 µg/mL (≈ 37.6 to 151 µM) in the assay with P. acnes isolates (setting [16]); 1 to 8 µg/mL (≈ 2.35 to 18.8 µM) in assay [1] (P. acnes strain V21A-1); 8 to 64 µg/mL (≈ 18.8 to 151 µM) in assay [1] (P. acnes strain V21A-2); 8 to 32 µg/mL (≈ 18.8 to 75.3 µM) in assay [1] (P. acnes strain V21A-3). For the same compound, the MIC in assay [1] (P. acnes strain V21A-5) is 1 µg/mL (≈ 2.35 µM); in assay [1] (P. acnes strain V21A-6) it was 1 to 2 µg/mL (≈ 2.35 to 4.71 µM); in assay [1] (P. acnes strain V21A-7), 0.5 to 2 µg/mL (≈ 1.18 to 4.71 µM); in assay [1] (P. acnes strain V21A-8) it was 1 to 2 µg/mL (≈ 2.35 to 4.71 µM); in assay [1] (P. acnes strain V21A-9) it was 16 to 32 µg/mL (≈ 37.6 to 75.3 µM); in assay [1] (P. acnes strain V21B-1), 64 µg/mL (≈ 151 µM). Also, the MIC in assay [1] (P. acnes strain V21B-2) was 16 to 64 µg/mL (≈ 37.6 to 151 µM); in assay [1] (P. acnes strain V21B-3), 64 µg/mL (≈ 151 µM); in assay [1] (P. acnes strain V21B-4) it was 32 to 64 µg/mL (≈ 75.3 to 151 µM); in assay [1] (P. acnes strain V21B-5) it was 1 to 4 µg/mL (≈ 2.35 to 9.41 µM); in assay [1] (P. acnes strain V21B-6) it was 16 to 64 µg/mL (≈ 37.6 to 151 µM); in assay [1] (P. acnes strain V21B-7), 16 to 64 µg/mL (≈ 37.6 to 151 µM). For the same compound, in assay [1] (P. acnes strain V21B-8), the MIC fell in the range of 16 to 64 µg/mL (≈ 37.6 to 151 µM).

For `CC[C@H]1OC(=O)[C@H](C)[C@@H](O[C@H]2C[C@@](C)(OC)[C@@H](O)[C@H](C)O2)[C@H](C)[C@@H](O[C@@H]2O[C@H](C)C[C@H](N(C)C)[C@H]2O)[C@](C)(O)C[C@@H](C)C(=O)[C@H](C)[C@@H](O)[C@]1(C)O` [Erythromycin, erythromycin], the MIC against P. acnes isolates (setting [2]) lay within 50 to 200 µg/mL (≈ 68.1 to 273 µM); with P. acnes isolates (setting [3]) it was 50 to 200 µg/mL (≈ 68.1 to 273 µM); against P. acnes isolates (setting [4]), 100 to 200 µg/mL (≈ 136 to 273 µM); against P. acnes isolates (setting [5]), 100 to 200 µg/mL (≈ 136 to 273 µM); against P. acnes isolates (setting [6]), 100 to 200 µg/mL (≈ 136 to 273 µM); in the assay on P. acnes isolates (setting [7]), 100 to 200 µg/mL (≈ 136 to 273 µM). The MIC with P. acnes isolates (setting [8]) was 100 to 200 µg/mL (≈ 136 to 273 µM); in the assay with P. acnes isolates (setting [9]), 100 to 200 µg/mL (≈ 136 to 273 µM); against P. acnes isolates (setting [10]), 100 to 200 µg/mL (≈ 136 to 273 µM); against P. acnes isolates (setting [11]) it was 100 to 200 µg/mL (≈ 136 to 273 µM); in the assay on P. acnes isolates (setting [12]) it was more than 200 µg/mL; in the assay on P. acnes isolates (isolate V21B3, phylotype IB, type I, 23S rRNA A2058G) it was more than 200 µg/mL. Besides, the MIC with P. acnes isolates (setting [13]) is more than 200 µg/mL; in the assay with P. acnes isolates (setting [14]) it was more than 200 µg/mL; against P. acnes isolates (setting [15]), more than 200 µg/mL; against P. acnes isolates (setting [16]), more than 200 µg/mL; in assay [1] (P. acnes strain V21A-1) it was 50 to 200 µg/mL (≈ 68.1 to 273 µM); in assay [1] (P. acnes strain V21A-2), 50 to 200 µg/mL (≈ 68.1 to 273 µM). In addition, the MIC in assay [1] (P. acnes strain V21A-3), in assay [1] (P. acnes strain V21A-4), in assay [1] (P. acnes strain V21A-5), in assay [1] (P. acnes strain V21A-6), in assay [1] (P. acnes strain V21A-7) and in assay [1] (P. acnes strain V21A-8) was 100 to 200 µg/mL (≈ 136 to 273 µM) each time. Also, the MIC in assay [1] (P. acnes strain V21A-9) was 100 to 200 µg/mL (≈ 136 to 273 µM); in assay [1] (P. acnes strain V21A-10), 100 to 200 µg/mL (≈ 136 to 273 µM); in assay [1] (P. acnes strain V21B-1), more than 200 µg/mL; in assay [1] (P. acnes strain V21B-2) it was more than 200 µg/mL; in assay [1] (P. acnes strain V21B-3) it was more than 200 µg/mL; in assay [1] (P. acnes strain V21B-4), 200 µg/mL (≈ 273 µM). For the same compound, the MIC in assay [1] (P. acnes strain V21B-5), in assay [1] (P. acnes strain V21B-6), in assay [1] (P. acnes strain V21B-7) and in assay [1] (P. acnes strain V21B-8) was more than 200 µg/mL throughout. Besides, the “increase of average MIC” value in the assay on P. acnes is listed as 100 fold.

Take `C[C@H]1COc2c(N3CCN(C)CC3)c(F)cc3c(=O)c(C(=O)O)cn1c23` [Levofloxacin, levofloxacin]: the MIC is less than 0.13 µg/mL in assay [1] (P. acnes strain V21A-1); less than 0.13 µg/mL in assay [1] (P. acnes strain V21A-5); less than 0.13 µg/mL in assay [1] (P. acnes strain V21A-8); 0.5 µg/mL (≈ 1.38 µM) in assay [1] (P. acnes strain V21B-1); 0.3 µg/mL (≈ 0.83 µM) in assay [1] (P. acnes strain V21B-2); 0.5 µg/mL (≈ 1.38 µM) in assay [1] (P. acnes strain V21B-3). The minimal inhibitory concentration (MIC) in assay [1] (P. acnes strain V21B-4) came out at 0.5 µg/mL (≈ 1.38 µM); in assay [1] (P. acnes strain V21B-5), 0.5 µg/mL (≈ 1.38 µM); in assay [1] (P. acnes strain V21B-6) it was 0.5 µg/mL (≈ 1.38 µM); in assay [1] (P. acnes strain V21B-7), 0.3 µg/mL (≈ 0.83 µM); in assay [1] (P. acnes strain V21B-8) it was 0.5 µg/mL (≈ 1.38 µM).

On to `CC1CCc2c(N3CCC(O)CC3)c(F)cc3c(=O)c(C(=O)O)cn1c23` (centres unmarked) [Nadifloxacin, nadifloxacin], for which the MIC in assay [1] (P. acnes strain V21A-1) was less than 0.13 µg/mL; in assay [1] (P. acnes strain V21A-2) it was 0.3 µg/mL (≈ 0.832 µM); in assay [1] (P. acnes strain V21A-4), 0.3 µg/mL (≈ 0.832 µM); in assay [1] (P. acnes strain V21A-5) it was less than 0.13 µg/mL; in assay [1] (P. acnes strain V21A-6), 0.3 µg/mL (≈ 0.832 µM); in assay [1] (P. acnes strain V21A-8), less than 0.13 µg/mL. Further, the minimum inhibitory concentration (MIC) in assay [1] (P. acnes strain V21A-9) was found to be 0.3 µg/mL (≈ 0.832 µM); in assay [1] (P. acnes strain V21A-10) it was 0.3 µg/mL (≈ 0.832 µM); in assay [1] (P. acnes strain V21B-1) it was 0.5 µg/mL (≈ 1.39 µM); in assay [1] (P. acnes strain V21B-2), 0.5 µg/mL (≈ 1.39 µM); in assay [1] (P. acnes strain V21B-3), 0.5 µg/mL (≈ 1.39 µM); in assay [1] (P. acnes strain V21B-4), 0.5 µg/mL (≈ 1.39 µM). Besides, the MIC in assay [1] (P. acnes strain V21B-5), in assay [1] (P. acnes strain V21B-6), in assay [1] (P. acnes strain V21B-7) and in assay [1] (P. acnes strain V21B-8) was 0.5 µg/mL (≈ 1.39 µM) throughout. In addition, the “susceptibility of the strains as indicated by MIC values” in assay [1] was “susceptible”.

By MIC is commonly meant the lowest concentration that inhibits growth of the organism. Low values mean inhibition by little substance, high ones a need for much substance.
